Experiments:
[1] = test system: C2C12 myotubes (PGC-1α, Tfam, PFKFB3, CPT1b, MCAD, LCAD, Ndufa2, Cyt c, Mfn2); test: Mitochondrial gene expression by real time quantitative PCR in C2C12 myotubes; assay type: cell-based; conditions: 48 hr, 1, 10 or 50 μM, vs DMSO control (FIG. 3)
Experimental: To assess the effects of compounds on mitochondrial gene expression, C2C12 myoblasts were differentiated into myotubes by serum deprivation for 4 days (Cantó et al. (2009) Nature. 458:1056-60). Myotubes were incubated for 48 hr with ellagic acid or urolithin A at a final concentration of 1, 10 or 50 μM (all dissolved in DMSO, final concentration 0.1%). DMSO was used as a control (final concentration 0.1%). At the end of the treatment, cells were washed with phosphate buffered saline (PBS) and mRNA were immediately extracted according to manufacturer's instructions (Trizol Reagent, Invitrogen) by adding 1 mL of Trizol reagent. After extraction, cDNA were produced by reverse transcription according to manufacturer's instructions.
Assessment of the expression levels of genes (PGC-1α, Tfam, PFKFB3, CPT1b, MCAD, LCAD, Ndufa2, Cyt c, and Mfn2) which control the mitochondrial function was performed by real time quantitative PCR (Watanabe et al. (2004) J Clin Invest. 113:1408-18) by using the following set of primers (Fwd: forward primer; Rev: reverse primer): […]
PGC-1α (PPARγ-coregulator 1α) and Tfam (mitochondrial transcription factor A) are master regulators of the mitochondrial function, namely of mitochondrial biogenesis and mitochondrial phosphorylative oxidation (mOXPHOS). […]

citrate synthase = test: Citrate synthase activity in C2C12 myotubes; assay type: cell-based; conditions: 48 hr, punicalagin 1 or 10 μM, ellagic acid or urolithin 1, 10 or 50 μM (FIG. 4)
Experimental: The enzyme citrate synthase catalyzes the reaction between acetyl coenzyme A (acetyl CoA) and oxaloacetic acid to form citric acid. The acetyl CoA contributes 2 carbons to the 4 carbons of oxaloacetate, resulting in citrate with 6 carbons. The hydrolysis of the thioester of acetyl CoA results in the formation of CoA with a thiol group (CoA-SH). The activity of citrate synthase is measured via the reaction between the thiol of CoA-SH with the DTNB in the mixture to form 5-thio-2-nitrobenzoic acid (TNB). This yellow product (TNB) is observed spectrophotometrically by measuring absorbance at 412 nm (Citrate Synthase Assay Kit, Cat Number CS0720, Sigma Aldrich).
C2C12 myoblasts were differentiated into myotubes by serum deprivation for 4 days (Canto et al. (2009) Nature. 458:1056-60). Myotubes were incubated for 48 hr with punicalagin at a final concentration of 1 or 10 μM or with ellagic acid or urolithin at a final concentration of 1, 10 or 50 μM (all dissolved in DMSO, final concentration 0.1%). DMSO was used as a control (final concentration 0.1%). At the end of the treatment, cells were washed 3 times with PBS and assayed for citrate synthase activity according to manufacturer's instructions (Citrate Synthase Assay Kit, Cat Number CS0720, Sigma Aldrich).

HFD-fed C57BL6/J mice = test: Oral glucose tolerance test in HFD-fed mice; assay type: in vivo; conditions: 10 weeks of treatment (FIG. 24)
Experimental: Mice in different treatment groups were administered (i) urolithin A mixed with food (food admix) to reach a dosing of 55 mg/kg body weight/day (mkd); (ii) ellagic acid mixed with food (food admix) to reach a dosing of 75 mkd; (iii) punicalagin (gavage) to reach a dosing of 90 mkd; or (iv) pomegranate extract (PE) (gavage) to reach a dosing of 140 mkd of total polyphenols. A typical pomegranate extract used in these experiments had the following composition: polyphenols, 140 mkd; punicalagin, 13.1 mkd; and ellagic acid, 13.2 mkd. For animals treated by gavage, gavage was performed daily (7 days/week) between 8:00 and 10:00 a.m.; compounds were mixed with saline solution (0.9% NaCl) and provided at a final volume of 5 mL/kg of body weight. Mice in high-fat control groups were fed with the same diet as the experimental animals. Mice in corresponding different control groups were administered either high-fat diet alone or high-fat diet plus daily gavage with vehicle (saline). Another control group of mice were fed standard chow diet alone.
Male C57BL6/J mice were grouped and treated as described in Example 7. In addition, glucose tolerance test (GTT) was performed for HFD-fed mice which developed glucose intolerance. Glucose tolerance test was monitored 10 weeks after the initiation of the treatment by Oral Glucose Tolerance Test (oGTT). Animals were fasted for 12 h (from 8 pm to 8 am) before oGTT. The day of the oGTT, a small drop of blood (<2 μL) was collected from the lateral tail vein and glycemia was monitored using a glucometer (AccuCheck Aviva, Roche Diagnosis). Each animal then received, at time 0, an oral dose of D-glucose at a dosing of 2 g/kg body weight. Glycemia was then monitored at times 15, 30, 45, 60, 90, 120, and 150 min after oral glucose load.

SMILES | mitochondrial activity by expression of mitochondrial genes [1] | citrate synthase activity (citrate synthase) | glucose tolerance (oGTT, glycemia after 2 g/kg D-glucose) (HFD-fed C57BL6/J mice)
O=c1oc2cc(O)ccc2c2ccc(O)cc12 [urolithin A, 3,8-Dihydroxydibenzo-α-pyrone] | increase mitochondrial activity in a dose-dependent manner | increase citrate synthase activity in a dose-dependent manner | improved glucose tolerance
O=c1oc2c(O)c(O)cc3c(=O)oc4c(O)c(O)cc1c4c23 [ellagic acid] | increase mitochondrial activity in a dose-dependent manner | increase citrate synthase activity in a dose-dependent manner | improved glucose tolerance
O=C1O[C@H]2[C@@H]3OC(=O)c4cc(O)c(O)c(O)c4-c4c(O)c(O)c5oc(=O)c6c(c(O)c(O)c7oc(=O)c4c5c76)-c4c(cc(O)c(O)c4O)C(=O)OC[C@H]3OC(O)[C@@H]2OC(=O)c2cc(O)c(O)c(O)c2-c2c1cc(O)c(O)c2O (mixture of isomers) [punicalagin, 2,3 hexahydroxydiphenoyl-4,6-gallagylglucose] |  | increase citrate synthase activity in a dose-dependent manner | improved glucose tolerance
